# Ends that are not written are not given here.
# Columns and labels:
# MDA-MB-231 xenograft = experiment: MDA-MB-231 orthotopic breast tumor xenograft; type: in vivo, SCID mice
# Description: For primary tumor inhibition studies, 1−2×10^6 tumor cells were injected into 4-6 wk old female SCID mice. After the tumors reached a size of 100 mm^3 the animals were randomized into groups of 10 animals each. The animals were treated with vehicle, SP2012, SP2000, or SP2024. The peptides were administered subcutaneously daily. Dosing was continued for 3 or 4 weeks and tumor sizes were measured every 3 days using calipers. The tumor volume was estimated using the formula V=a^2b/2 where a and b are the smaller and larger diameters.
# For the tumor xenograft assay, animals were housed and treated according to the approved animal protocol of the Institutional Care and Use Committee at Johns Hopkins Medical Institution (JHMI). Orthotopic breast tumors were initiated in SCID mice using MDA-MB-231 cells. 2×10^6 cells per 100 μL aliquot of single cell suspension were injected in the breast mannary fat pad. Tumors reached volumes of 75 mm^3 to 100 mm^3 in approximately 14-21 days. Mice were randomized and arranged in groups (8 mice per group) with similar tumor volumes (no statistical difference among averages) and treatment was commenced. Peptides were administered once per day intraperitoneally (i.p.) at doses of 10 mg/kg (subcutaneous delivery was also tested with certain peptides). Paclitaxel was administered at 5 mg/kg once a week, and to maintain the daily treatment regime PBS was administered on the non-treatment days. Tumors were measured every fourth day using calipers and the tumor volume was calculated using the formula V=ab^2/2, where a is the larger diameter and b is the smaller diameter.
# MDA-MB-231 tumors = experiment: MRI of tumor vascular volume and permeability surface-area product; type: in vivo, mice; conditions: vs control
# Description: MRI of vascular volume and permeability surface-area product (PSP) were determined as follows. Mice with volume-matched tumors were treated with SP2024 or vehicle and imaged 24 h post treatment. The mice were anesthetized and the tail vein was catheterized before placing the animal in the spectrometer. All imaging studies were performed on a 4.7 T Bruker Avance spectrometer, as previously described (Raman et al., 2006; Bhujwalla et al., 2001) using a home-built solenoid coil placed around the tumor. Briefly, multislice relaxation rate (1/T1) maps were obtained by a saturation recovery method combined with fast T1 SNAPSHOT-FLASH imaging (flip angle of 10°, echo time of 2 ms). […] The detectable areas of vascular volume and permeability as well as absolute values of vascular volume and permeability were analyzed. […] Volume fractions of the regions were determined using the histogram analysis of the volume data. […] Statistical significance (p<0.05) within each experiment using the independent replicates was assessed using standard statistical assessments such as Student's t-test and ANOVA accompanied by Dunnett's test if different sets of data were compared to one group.
# [1] = tested on: choroidal neovascularization; experiment: Laser-induced choroidal neovascularization model; type: in vivo, C57BL/6 mice; conditions: 0.01, 0.1, or 1 μg into the mouse eye
# Description: The ocular laser-induced choroidal neovascularization (NV) model of wet age-related macular degeneration was used for testing. 5-6-week-old female pathogen-free C57BL/6 mice were anesthetized with ketamine hydrochloride (100 mg/kg body weight) and pupils were dilated. Laser photocoagulation (75-μm spot size, 0.1-sec duration, 120 mW) was performed in the 9, 12, and 3 o'clock positions of the posterior pole of each eye with the slit lamp delivery system of an OcuLight GL diode laser (Iridex, Mountain View, Calif.) and a handheld cover slip as a contact lens to view the retina. Production of a tissue bubble by the laser, which indicates rupture of Bruch's membrane, is an important factor in obtaining choroidal NV; therefore, only burns in which a bubble is produced are included in the study. […] At day 7 the mice that received the naked peptides were dosed again whereas the mice that received the particles were administered PBS. Intravitreous injections were done under a dissecting microscope with a Harvard Pump Microinjection System and pulled glass micropipettes. After 14 days, the mice were perfused with 1 mL of PBS containing 50 mg/mL of fluorescein-labeled dextran (2×10^6 Daltons average molecular weight; Sigma-Aldrich, St. Louis, Mo.) and choroidal flat mounts were examined by fluorescence microscopy. Images were captured with a Nikon Digital Still Camera DXM1200 (Nikon Instruments Inc., New York, N.Y.). Image analysis software (Image-Pro Plus; Media Cybernetics, Silver Spring, Md.) was used to measure the total area of choroidal NV at each rupture site with the investigator masked with respect to treatment group.
# [2] = tested on: VEGF mediated retinal neovascularization; experiment: Rho/VEGF transgenic mice model of retinal neovascularization; type: in vivo; conditions: 0.01, 0.1, or 1 μg into the mouse eye
# Description: The ocular Rho/VEGF transgenic mice model of wet age-related macular degeneration also was used to test some of the peptides. Transgenic mice in which the rhodopsin promoter drives expression of VEGF in photoreceptors have the onset of VEGF production at P7 and develop extensive NV along the outer surface of the retina by P21 (Okamoto et al., 1997; To be et al., 1998). Mice hemizygous for the transgene (n=15 for each dose) were given an intraocular injection of 1 μl of PBS containing 0.01, 0.1, or 1 μg of peptide or scramble peptide in one eye at P7 and P14 and at P21 the mice were anesthetized, perfused with fluorescein-labeled dextran, and the total area of neovascularization on the outer surface of the retina was measured on retinal flat mounts by image analysis as above.
substance,measurement,setting,value
LRRFSTMPFMFININNVINF-NH2 [SP2024],suppression of tumor growth,"MDA-MB-231 xenograft; MDA-MB-231 xenograft in mice, 10 mg/kg daily",inhibited tumor growth significantly over the control
same,MDA-MB-231 xenograft inhibition,MDA-MB-231 xenograft; mice,Active
same,relative vascular volume,MDA-MB-231 tumors,reduced relative vascular volume
same,tumor permeability-surface area product,MDA-MB-231 tumors,reduced tumor permeability-surface area product
same,area of choroidal neovascularization,[1],generally decreased
same,area of retinal neovascularization,[2],generally decreased

# — US9056923B2, “Mimetic peptides derived from collagen type IV and their use for treating angiogenesis- and lymphagiogenesis-dependent diseases” (THE JOHNS HOPKINS UNIVERSITY, priority 2010, dated 2015)
